Experiment: xn = mol fraction of the nth substance listed
Details: 100 kPa

## CCOC(=O)OCC + CCCC[N+]1(C)CCCC1.O=S(=O)([N-]S(=O)(=O)C(F)(F)F)C(F)(F)F
293.15 K, x2 = 0
  viscosity: 0.8 mPa·s
298.15 K, x2 = 0
  viscosity: 0.75 mPa·s
303.15 K, x2 = 0
  viscosity: 0.7 mPa·s
308.15 K, x2 = 0
  viscosity: 0.65 mPa·s
313.15 K, x2 = 0
  viscosity: 0.61 mPa·s
318.15 K, x2 = 0
  viscosity: 0.58 mPa·s

## CCCC[N+]1(C)CCCC1.O=S(=O)([N-]S(=O)(=O)C(F)(F)F)C(F)(F)F + CCOC(=O)OCC
293.15 K, x1 = 0.1506
  electrical conductivity: 0.443 S/m
  viscosity: 2.76 mPa·s
293.15 K, x1 = 0.25
  electrical conductivity: 0.584 S/m
293.15 K, x1 = 0.2973
  electrical conductivity: 0.613 S/m
  viscosity: 6.62 mPa·s
293.15 K, x1 = 0.349
  electrical conductivity: 0.608 S/m
  viscosity: 8.69 mPa·s
293.15 K, x1 = 0.4
  electrical conductivity: 0.531 S/m
  viscosity: 11.2 mPa·s
293.15 K, x1 = 0.6002
  electrical conductivity: 0.34 S/m
  viscosity: 29.01 mPa·s
293.15 K, x1 = 0.6985
  electrical conductivity: 0.288 S/m
  viscosity: 41 mPa·s
293.15 K, x1 = 0.8006
  electrical conductivity: 0.254 S/m
  viscosity: 55.9 mPa·s
293.15 K, x1 = 1
  electrical conductivity: 0.216 S/m
  viscosity: 98 mPa·s
298.15 K, x1 = 0.1001
  electrical conductivity: 0.372 S/m
  viscosity: 1.65 mPa·s
298.15 K, x1 = 0.1506
  electrical conductivity: 0.494 S/m
  viscosity: 2.49 mPa·s
298.15 K, x1 = 0.2
  electrical conductivity: 0.586 S/m
  viscosity: 3.49 mPa·s
298.15 K, x1 = 0.25
  electrical conductivity: 0.646 S/m
298.15 K, x1 = 0.2973
  electrical conductivity: 0.701 S/m
  viscosity: 5.86 mPa·s
298.15 K, x1 = 0.349
  electrical conductivity: 0.693 S/m
  viscosity: 7.74 mPa·s
298.15 K, x1 = 0.4
  electrical conductivity: 0.622 S/m
  viscosity: 9.95 mPa·s
298.15 K, x1 = 0.4998
  electrical conductivity: 0.514 S/m
  viscosity: 15.45 mPa·s
298.15 K, x1 = 0.6002
  electrical conductivity: 0.425 S/m
  viscosity: 24.22 mPa·s
298.15 K, x1 = 0.6985
  electrical conductivity: 0.365 S/m
  viscosity: 34.1 mPa·s
298.15 K, x1 = 0.8006
  electrical conductivity: 0.329 S/m
  viscosity: 46 mPa·s
298.15 K, x1 = 0.8934
  electrical conductivity: 0.3 S/m
  viscosity: 58.6 mPa·s
298.15 K, x1 = 1
  electrical conductivity: 0.275 S/m
  viscosity: 76.6 mPa·s
303.15 K, x1 = 0.1001
  electrical conductivity: 0.401 S/m
  viscosity: 1.5 mPa·s
303.15 K, x1 = 0.1506
  electrical conductivity: 0.543 S/m
  viscosity: 2.26 mPa·s
303.15 K, x1 = 0.2973
  electrical conductivity: 0.785 S/m
  viscosity: 5.21 mPa·s
303.15 K, x1 = 0.349
  electrical conductivity: 0.782 S/m
  viscosity: 7 mPa·s
303.15 K, x1 = 0.4
  electrical conductivity: 0.714 S/m
  viscosity: 8.78 mPa·s
303.15 K, x1 = 0.4998
  electrical conductivity: 0.601 S/m
  viscosity: 13.25 mPa·s
303.15 K, x1 = 0.6002
  electrical conductivity: 0.509 S/m
  viscosity: 20.02 mPa·s
303.15 K, x1 = 0.6985
  electrical conductivity: 0.438 S/m
  viscosity: 28.53 mPa·s
303.15 K, x1 = 0.8006
  electrical conductivity: 0.395 S/m
  viscosity: 38 mPa·s
303.15 K, x1 = 0.8934
  electrical conductivity: 0.371 S/m
  viscosity: 46.9 mPa·s
303.15 K, x1 = 1
  electrical conductivity: 0.34 S/m
  viscosity: 61.6 mPa·s
308.15 K, x1 = 0.1001
  electrical conductivity: 0.436 S/m
  viscosity: 1.35 mPa·s
308.15 K, x1 = 0.1506
  electrical conductivity: 0.591 S/m
  viscosity: 2.03 mPa·s
308.15 K, x1 = 0.2
  electrical conductivity: 0.703 S/m
  viscosity: 2.85 mPa·s
308.15 K, x1 = 0.25
  electrical conductivity: 0.8 S/m
308.15 K, x1 = 0.2973
  electrical conductivity: 0.876 S/m
  viscosity: 4.79 mPa·s
308.15 K, x1 = 0.349
  electrical conductivity: 0.867 S/m
  viscosity: 6.3 mPa·s
308.15 K, x1 = 0.4
  electrical conductivity: 0.803 S/m
  viscosity: 7.89 mPa·s
308.15 K, x1 = 0.6002
  electrical conductivity: 0.612 S/m
  viscosity: 17 mPa·s
308.15 K, x1 = 0.6985
  electrical conductivity: 0.534 S/m
  viscosity: 23.82 mPa·s
308.15 K, x1 = 0.8006
  electrical conductivity: 0.485 S/m
  viscosity: 32.02 mPa·s
308.15 K, x1 = 1
  electrical conductivity: 0.411 S/m
  viscosity: 50.8 mPa·s
313.15 K, x1 = 0.1506
  electrical conductivity: 0.637 S/m
  viscosity: 1.83 mPa·s
313.15 K, x1 = 0.2
  electrical conductivity: 0.766 S/m
  viscosity: 2.56 mPa·s
313.15 K, x1 = 0.2973
  electrical conductivity: 0.968 S/m
  viscosity: 4.33 mPa·s
313.15 K, x1 = 0.349
  electrical conductivity: 0.957 S/m
  viscosity: 5.76 mPa·s
313.15 K, x1 = 0.4
  electrical conductivity: 0.908 S/m
  viscosity: 7.11 mPa·s
313.15 K, x1 = 0.4998
  electrical conductivity: 0.804 S/m
  viscosity: 10.46 mPa·s
313.15 K, x1 = 0.6002
  electrical conductivity: 0.73 S/m
  viscosity: 14.69 mPa·s
313.15 K, x1 = 0.6985
  electrical conductivity: 0.649 S/m
  viscosity: 19.99 mPa·s
313.15 K, x1 = 0.8006
  electrical conductivity: 0.588 S/m
  viscosity: 26 mPa·s
313.15 K, x1 = 0.8934
  electrical conductivity: 0.535 S/m
  viscosity: 31.7 mPa·s
313.15 K, x1 = 1
  electrical conductivity: 0.491 S/m
  viscosity: 41.6 mPa·s
318.15 K, x1 = 0.1001
  electrical conductivity: 0.501 S/m
  viscosity: 1.09 mPa·s
318.15 K, x1 = 0.1506
  electrical conductivity: 0.684 S/m
  viscosity: 1.64 mPa·s
318.15 K, x1 = 0.2
  electrical conductivity: 0.83 S/m
  viscosity: 2.28 mPa·s
318.15 K, x1 = 0.25
  electrical conductivity: 1 S/m
318.15 K, x1 = 0.2973
  electrical conductivity: 1.05 S/m
  viscosity: 3.9 mPa·s
318.15 K, x1 = 0.349
  electrical conductivity: 1.05 S/m
  viscosity: 5.21 mPa·s
318.15 K, x1 = 0.4
  electrical conductivity: 1 S/m
  viscosity: 6.45 mPa·s
318.15 K, x1 = 0.4998
  electrical conductivity: 0.903 S/m
  viscosity: 9.01 mPa·s
318.15 K, x1 = 0.6002
  electrical conductivity: 0.831 S/m
  viscosity: 13 mPa·s
318.15 K, x1 = 0.6985
  electrical conductivity: 0.746 S/m
  viscosity: 17.01 mPa·s
318.15 K, x1 = 0.8006
  electrical conductivity: 0.673 S/m
  viscosity: 22 mPa·s
318.15 K, x1 = 0.8934
  electrical conductivity: 0.62 S/m
  viscosity: 26.75 mPa·s
318.15 K, x1 = 1
  electrical conductivity: 0.581 S/m
  viscosity: 34.6 mPa·s
323.15 K, x1 = 0.1506
  electrical conductivity: 0.742 S/m
  viscosity: 1.46 mPa·s
323.15 K, x1 = 0.2
  electrical conductivity: 0.901 S/m
  viscosity: 2.05 mPa·s
323.15 K, x1 = 0.25
  electrical conductivity: 1.1 S/m
323.15 K, x1 = 0.2973
  electrical conductivity: 1.14 S/m
  viscosity: 3.52 mPa·s
323.15 K, x1 = 0.349
  electrical conductivity: 1.15 S/m
  viscosity: 4.63 mPa·s
323.15 K, x1 = 0.4
  electrical conductivity: 1.1 S/m
  viscosity: 5.79 mPa·s
323.15 K, x1 = 0.4998
  electrical conductivity: 1.02 S/m
  viscosity: 8.05 mPa·s
323.15 K, x1 = 0.6002
  electrical conductivity: 0.935 S/m
  viscosity: 11.01 mPa·s
323.15 K, x1 = 0.6985
  electrical conductivity: 0.865 S/m
  viscosity: 14.4 mPa·s
323.15 K, x1 = 0.8934
  electrical conductivity: 0.745 S/m
  viscosity: 22.8 mPa·s
323.15 K, x1 = 1
  electrical conductivity: 0.681 S/m
  viscosity: 29.46 mPa·s

Reference: a compilation of properties of binary mixtures (doi:10.1021/acs.jced.9b00738)
